Data reported in PubChem BioAssay (NCI).
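Cultured in 96-well plates, cells were exposed to test compound for 48 hours across five concentrations. At the GI50, growth is halved. TGI is the concentration that stops growth completely.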

Columns and labels:
Experiment in all cases: NCI-60 cell line screen, 48 h
OVCAR-4 ovarian = system: OVCAR-4 ovarian
CAKI-1 renal = system: CAKI-1 renal
IGROV1 ovarian = system: IGROV1 ovarian
DU-145 prostate = system: DU-145 prostate
NCI-H23 lung = system: NCI-H23 lung
MALME-3M melanoma = system: MALME-3M melanoma
UACC-257 melanoma = system: UACC-257 melanoma
NCI-H226 lung = system: NCI-H226 lung
U251 CNS = system: U251 CNS
NCI/ADR-RES ovarian = system: NCI/ADR-RES ovarian
OVCAR-5 ovarian = system: OVCAR-5 ovarian
SW-620 colon = system: SW-620 colon
786-0 renal = system: 786-0 renal
LOX IMVI melanoma = system: LOX IMVI melanoma
SNB-75 CNS = system: SNB-75 CNS
SK-MEL-28 melanoma = system: SK-MEL-28 melanoma
NCI-H522 lung = system: NCI-H522 lung
OVCAR-3 ovarian = system: OVCAR-3 ovarian
SN12C renal = system: SN12C renal
SF-539 CNS = system: SF-539 CNS
A549 NSCLC = system: A549 NSCLC
BT-549 breast = system: BT-549 breast
HOP-92 NSCLC = system: HOP-92 NSCLC
SK-MEL-5 melanoma = system: SK-MEL-5 melanoma
K-562 leukemia = system: K-562 leukemia
PC-3 prostate = system: PC-3 prostate
T-47D breast = system: T-47D breast
SF-295 CNS = system: SF-295 CNS
HCC-2998 colon = system: HCC-2998 colon
CCRF-CEM leukemia = system: CCRF-CEM leukemia
HCT-15 colon = system: HCT-15 colon
HCT-116 colon = system: HCT-116 colon
MDA-MB-435 = system: MDA-MB-435
OVCAR-8 ovarian = system: OVCAR-8 ovarian
HL-60(TB) leukemia = system: HL-60(TB) leukemia
MOLT-4 leukemia = system: MOLT-4 leukemia
NCI-H460 lung = system: NCI-H460 lung
KM12 colon = system: KM12 colon
SNB-19 CNS = system: SNB-19 CNS
UACC-62 melanoma = system: UACC-62 melanoma
SF-268 CNS = system: SF-268 CNS
SR leukemia = system: SR leukemia
RPMI-8226 leukemia = system: RPMI-8226 leukemia
HS 578T breast = system: HS 578T breast
SK-MEL-2 melanoma = system: SK-MEL-2 melanoma
SK-OV-3 ovarian = system: SK-OV-3 ovarian
TK-10 renal = system: TK-10 renal
MDA-MB-231 breast = system: MDA-MB-231 breast
UO-31 renal = system: UO-31 renal
COLO 205 colon = system: COLO 205 colon
EKVX NSCLC = system: EKVX NSCLC
RXF 393 renal = system: RXF 393 renal
M14 melanoma = system: M14 melanoma
MCF7 breast = system: MCF7 breast
HOP-62 NSCLC = system: HOP-62 NSCLC
HT29 colon = system: HT29 colon
ACHN renal = system: ACHN renal

COC1[C@@H]2C[C@H]3C(C)(C)O[C@@](C/C=C(/C)C(=O)O)(C2=O)[C@]32Oc3c(CC=C(C)C)c4c(c(O)c3C(=O)[C@H]12)C=CC(C)(C)O4 (some centres undefined)
GI50 (OVCAR-4 ovarian): 12.1 µM | TGI (OVCAR-4 ovarian): 29.9 µM | GI50 (CAKI-1 renal): 16.5 µM | TGI (CAKI-1 renal): 33.1 µM | GI50 (IGROV1 ovarian): 3.27 µM | TGI (IGROV1 ovarian): 10.7 µM | GI50 (DU-145 prostate): 13.2 µM | TGI (DU-145 prostate): 26.1 µM | GI50 (NCI-H23 lung): 16.4 µM | TGI (NCI-H23 lung): 50.6 µM | GI50 (MALME-3M melanoma): 14.2 µM | TGI (MALME-3M melanoma): 29.5 µM | GI50 (UACC-257 melanoma): 14.7 µM | TGI (UACC-257 melanoma): 35.8 µM | GI50 (NCI-H226 lung): 18.9 µM | TGI (NCI-H226 lung): 44.8 µM | GI50 (U251 CNS): 4.35 µM | TGI (U251 CNS): 16.1 µM | GI50 (NCI/ADR-RES ovarian): 15.2 µM | TGI (NCI/ADR-RES ovarian): > 100 µM | GI50 (OVCAR-5 ovarian): 20.1 µM | TGI (OVCAR-5 ovarian): 41.7 µM | GI50 (SW-620 colon): 3.05 µM | TGI (SW-620 colon): 10.8 µM | GI50 (786-0 renal): 2.49 µM | TGI (786-0 renal): 5.97 µM | GI50 (LOX IMVI melanoma): 2.15 µM | TGI (LOX IMVI melanoma): 5.31 µM | GI50 (SNB-75 CNS): 19.2 µM | TGI (SNB-75 CNS): 54.3 µM | GI50 (SK-MEL-28 melanoma): 11.9 µM | TGI (SK-MEL-28 melanoma): 26.6 µM | GI50 (NCI-H522 lung): 15.3 µM | TGI (NCI-H522 lung): 32.3 µM | GI50 (OVCAR-3 ovarian): 3.77 µM | TGI (OVCAR-3 ovarian): 14.9 µM | GI50 (SN12C renal): 6.85 µM | TGI (SN12C renal): 29.7 µM | GI50 (SF-539 CNS): 14.3 µM | TGI (SF-539 CNS): 28.5 µM | GI50 (A549 NSCLC): 19.7 µM | TGI (A549 NSCLC): 49.9 µM | GI50 (BT-549 breast): 2.47 µM | TGI (BT-549 breast): 7.1 µM | GI50 (HOP-92 NSCLC): 10.1 µM | TGI (HOP-92 NSCLC): 25.9 µM | GI50 (SK-MEL-5 melanoma): 12.5 µM | TGI (SK-MEL-5 melanoma): 25.9 µM | GI50 (K-562 leukemia): 3.92 µM | TGI (K-562 leukemia): 31.4 µM | GI50 (PC-3 prostate): 6.03 µM | TGI (PC-3 prostate): 22.2 µM | GI50 (T-47D breast): 3.14 µM | TGI (T-47D breast): 17.6 µM | GI50 (SF-295 CNS): 15.3 µM | TGI (SF-295 CNS): 34.8 µM | GI50 (HCC-2998 colon): 16.8 µM | TGI (HCC-2998 colon): 34.4 µM | GI50 (CCRF-CEM leukemia): 3.73 µM | TGI (CCRF-CEM leukemia): 53.1 µM | GI50 (HCT-15 colon): 2.97 µM | TGI (HCT-15 colon): 13.5 µM | GI50 (HCT-116 colon): 3.07 µM | TGI (HCT-116 colon): 9.71 µM | GI50 (MDA-MB-435): 11.6 µM | TGI (MDA-MB-435): 27.8 µM | GI50 (OVCAR-8 ovarian): 6.82 µM | TGI (OVCAR-8 ovarian): 29.5 µM | GI50 (HL-60(TB) leukemia): 1.53 µM | TGI (HL-60(TB) leukemia): 4.99 µM | GI50 (MOLT-4 leukemia): 3.61 µM | TGI (MOLT-4 leukemia): 36.8 µM | GI50 (NCI-H460 lung): 8.15 µM | TGI (NCI-H460 lung): 25.8 µM | GI50 (KM12 colon): 14.5 µM | TGI (KM12 colon): 31.1 µM | GI50 (SNB-19 CNS): 15.6 µM | TGI (SNB-19 CNS): 30.7 µM | GI50 (UACC-62 melanoma): 13.2 µM | TGI (UACC-62 melanoma): 29.4 µM | GI50 (SF-268 CNS): 12.8 µM | TGI (SF-268 CNS): 31.7 µM | GI50 (SR leukemia): 2.43 µM | TGI (SR leukemia): > 100 µM | GI50 (RPMI-8226 leukemia): 2.56 µM | TGI (RPMI-8226 leukemia): 8.1 µM | GI50 (HS 578T breast): 9.58 µM | TGI (HS 578T breast): 78 µM | GI50 (SK-MEL-2 melanoma): 19 µM | TGI (SK-MEL-2 melanoma): 42.1 µM | GI50 (SK-OV-3 ovarian): 23.4 µM | TGI (SK-OV-3 ovarian): 53.4 µM | GI50 (TK-10 renal): 18.8 µM | TGI (TK-10 renal): 33.5 µM | GI50 (MDA-MB-231 breast): 6.56 µM | TGI (MDA-MB-231 breast): 27.6 µM | GI50 (UO-31 renal): 6.73 µM | TGI (UO-31 renal): 21.3 µM | GI50 (COLO 205 colon): 17.2 µM | TGI (COLO 205 colon): 40.7 µM | GI50 (EKVX NSCLC): 10.3 µM | TGI (EKVX NSCLC): 28.9 µM | GI50 (RXF 393 renal): 4.54 µM | TGI (RXF 393 renal): 18.2 µM | GI50 (M14 melanoma): 6.57 µM | TGI (M14 melanoma): 24.4 µM | GI50 (MCF7 breast): 3.22 µM | TGI (MCF7 breast): 19.1 µM | GI50 (HOP-62 NSCLC): 16.3 µM | TGI (HOP-62 NSCLC): 32.4 µM | GI50 (HT29 colon): 10.2 µM | TGI (HT29 colon): 28.8 µM | GI50 (ACHN renal): 4.91 µM | TGI (ACHN renal): 18.4 µM
